Data as given in patent publication US8436013B2, “Compounds and methods for treatment of alpha-1 antitrypsin deficiency” (University of Florida Research Foundation, Inc., priority 2007, dated 2013).
Entries after “also recorded” stand apart in the source; their conditions may differ.

Key:
[1] = system: human ATZ transgenic model; details: cited from earlier work
[2] = biological target: T1, ATZ (Homo sapiens, UniProt P01009, E366K); test: ATZ secretion from CHO-ATZ cells, ELISA of culture supernatant; assay type: cell-based; details: various concentrations, supernatants at 24, 48 and 72 hours, DMSO controls
T1 construct: expressed in transfected cells; host or cells: CHO-ATZ cells
Description: FIG. 3. Effects of small molecule compounds on AAT secretion in cells. The CHO-ATZ cells were treated with various concentrations of NCI compounds. The culture supernatants were harvested for ELISA analysis. The data represent the means from 4-separate experiments.
Compounds listed in Table 1 were obtained from NCI/DTP. The compounds were dissolved in DMSO. As the first step, the compounds were tested in CHO-ATZ cells. Various concentrations of the compounds were added to the cells. The supernatants were harvested at time points: 24, 48, and 72 hours. The samples were then used for ELISA assay for human AAT.
(§1) Compounds were used to treat CHO-ATZ cells at various concentrations. Cell supernatant was harvested at different time points. ELISA test was performed to determine the level of ATZ in the supernatant. The cells were also harvested for Western blot analysis.

[3] = system: transgenic mice carrying a human ATZ transgene; test: Serum AAT level (ELISA) in transgenic mice carrying a human ATZ transgene; assay type: in vivo; details: treated for two weeks
Description: FIG. 6. Compounds according to the invention can increase AAT secretion in transgenic animals. The animals were treated for two weeks. Serum AAT levels were determined by ELISA assay.
Two test compounds were administered to transgenic mice (four animals per group, including control) carrying a human ATZ transgene to determine whether the compounds are capable of increasing AAT secretion in a transgenic animal model. The animals were treated for two weeks. Serum AAT levels were determined by ELISA assay.

[4] = system: AAT-Z transgenic mice; test: Liver histology (PASD staining, inflammation) in AAT-Z transgenic mice; assay type: in vivo; details: i.p. injection for 7 days, vs control
Description: FIG. 7. Compounds according to the invention decrease AAT accumulation and reduce inflammation in liver cells compared to control. AAT-Z transgenic mice were treated by i.p. injection of a compound or control for 7 days, followed by collection of liver tissue.
Compounds according to the invention decrease AAT accumulation and reduce inflammation in liver cells compared to control. AAT-Z transgenic mice were treated by i.p. injection of a compound or control for 7 days, followed by collection of liver tissue.

[5] = biological target: T1, ATZ; test: ATZ accumulation in treated cells, Western blot; assay type: cell-based; details: cells treated with polymer inhibitor vs controls
Description: FIG. 4. Polymer inhibitor (1,9-decadiene) reduces the ATZ accumulation in cells. Cells were treated with polymer inhibitor and harvested for Western blot analysis.
as §1
We then examined these two potentially effective inhibitors. The cells were treated by the inhibitors, followed by protein extraction and Western blot analysis.

[6] = biological target: T1, ATZ; test: Pulse-chase (35S labelling, anti-AAT immunoprecipitation) ATZ secretion in CHO cells; assay type: cell-based; details: CHO cells labeled with 35S, vs DMSO control
Description: FIG. 5. Polymer inhibitor (1,9-decadiene) increases ATZ secretion. The cells were labeled with ^35S and harvested at the indicated time points. The protein extracts were immunoprecipitated using anti-AAT antibody. The immunocomplexes were then resolved in PAGE gel. The intensity of AAT bands were then quantified and calculated. FIG. 5A is the cells treated with DMSO control; FIG. 5B represents result of cells with polymer inhibitor treatment. […] A non-denaturing gel was used to analyze cell extracts from compound-treated CHO ATZ cells.

T1 sequence (P01009 25-418 E366K): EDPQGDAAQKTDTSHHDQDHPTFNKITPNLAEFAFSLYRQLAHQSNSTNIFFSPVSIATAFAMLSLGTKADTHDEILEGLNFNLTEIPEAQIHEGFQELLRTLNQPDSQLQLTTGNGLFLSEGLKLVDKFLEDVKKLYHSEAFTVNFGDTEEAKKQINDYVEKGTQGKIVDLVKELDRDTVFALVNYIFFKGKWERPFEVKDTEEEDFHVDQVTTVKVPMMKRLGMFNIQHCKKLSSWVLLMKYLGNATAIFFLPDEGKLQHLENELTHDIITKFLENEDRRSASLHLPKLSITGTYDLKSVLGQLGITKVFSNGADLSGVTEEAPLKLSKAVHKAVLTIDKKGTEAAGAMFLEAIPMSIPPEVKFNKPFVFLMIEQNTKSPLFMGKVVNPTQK

O=C(O)CCCc1ccccc1 [4-phenylbutyric acid]
blood levels of AAT [1]: can increase blood levels of AAT

O=C(O)/C=C/c1cc2c(cc1[N+](=O)[O-])OCO2 [3,4-methylenedioxy-6-nitrocinnamic acid]
ATZ secretion (ELISA of supernatant) [2]: effectively enhance ATZ secretion in the cells | ATZ secretion (ELISA of supernatant) ([2]; listed as NSC 21034): appear to be effective for inhibition of ATZ secretion | AAT serum level enhancement [3]: more than two-fold | AAT accumulation in hepatocytes (PASD staining) [4]: decrease AAT accumulation in hepatocytes | liver tissue inflammation [4]: reduced live tissue inflammation

C=CCCCCCCC=C [1,9-decadiene]
ATZ secretion (ELISA of supernatant) [2]: effectively enhance ATZ secretion in the cells | ATZ secretion (ELISA of supernatant) ([2]; listed as NSC 102789): appear to be effective for inhibition of ATZ secretion | ATZ accumulation in cells (Western blot) [5]: reduced amount of ATZ; also recorded: effectively reduce the accumulation of ATZ in cells | ATZ secretion (pulse-chase) [6]: increases the ATZ secretion in the supernatant | AAT serum level enhancement [3]: more than two-fold | AAT accumulation in hepatocytes (PASD staining) [4]: decrease AAT accumulation in hepatocytes | liver tissue inflammation [4]: reduced live tissue inflammation
